Experimental data from patent US20230071390A1, “ASSESSMENT OF PR CELLULAR SIGNALING PATHWAY ACTIVITY USING MATHEMATICAL MODELLING OF TARGET GENE EXPRESSION” (InnoSIGN B.V., priority 2019, published 2023).

Columns and labels:
[1] = system: PR-B cellular signaling pathway; experiment: PR-B pathway activity in paired pre/post letrozole treatment breast cancer samples (GSE10281); type: in vivo, human; settings: ER positive breast cancer patients, 3 months neoadjuvant treatment
Text: (§1) Herein, an exemplary Bayesian network model as shown in FIG. 1 was used to model the transcriptional program of the PR cellular signaling pathway in a simple manner. The model consists of three types of nodes: (a) a transcription factor (TF) element (with states “absent” and “present”) in a first layer 1; (b) target genes TG1, TG2, TGn (with states “down” and “up”) in a second layer 2, and; (c) measurement nodes linked to the expression levels of the target genes in a third layer 3. These can be microarray probesets PS1,1, PS1,2, PS1,3, PS2,1, PSn,1, PSn,m (with states “low” and “high”), as preferably used herein, but could also be other gene expression measurements such as RNAseq or RT-qPCR.
(§2) Once the exemplary Bayesian network model is built and calibrated (see below), the model can be used on microarray data of a new sample by entering the probeset measurements as observations in the third layer 3, and inferring backwards in the model what the probability must have been for the TF element to be “present”. Here, “present” is considered to be the phenomenon that the TF element is bound to the DNA and is controlling transcription of the cellular signaling pathway's target genes, and “absent” the case that the TF element is not controlling transcription.
(§3) The models are identified by their target gene list and calibration set. […]

[2] = system: tumor growth in xenograft models; settings: cited from earlier work
[3] = system: PR cellular signaling pathway; experiment: PR pathway activity inferred by Bayesian network models, ishikawa IKPR-AB36 endometrium cell line (GSE29435); type: cell-based; settings: PR-A, PR-B and PR-A&B models; 1 nM, 48h; versus control treated samples
Text: as §1, §2, §3

[4] = system: PR cellular signaling pathway; experiment: PR pathway activity inferred by Bayesian network models, PR-B expressing hMEC breast cell line (GSE24468); type: cell-based; settings: PR-A, PR-B and PR-A&B models; 10 nM, 16h; versus control treated samples
Text: as §1, §2, §3

N#Cc1ccc(C(c2ccc(C#N)cc2)n2cncn2)cc1 [letrozole]
Normalized PR-B cellular signaling pathway activity levels, post vs. pre treatment ([1]; non-responders): remain similar to pre-treatment | Mean normalized PR-B cellular signaling pathway activity, post vs. pre treatment ([1]; responders): goes up

CC(=O)[C@H]1CC[C@H]2[C@@H]3CCC4=CC(=O)CC[C@]4(C)[C@H]3CC[C@]12C [progesterone, Progesterone]
Effect over tamoxifen regarding controlling tumor growth [2]: additive effect

CC(=O)O[C@]1(C(C)=O)CC[C@H]2[C@@H]3C[C@H](C)C4=CC(=O)CC[C@]4(C)[C@H]3CC[C@@]21C [MPA, medroxyprogesterone acetate]
PR cellular signaling pathway activity levels (odds PR on:off) [3]: significantly higher

CCC(=O)[C@@]1(C)CC[C@H]2[C@@H]3CCC4=CC(=O)CCC4=C3CC[C@@]21C [R5020, promegestone]
PR cellular signaling pathway activity levels [4]: significantly higher
